# Assay results reported in patent US11072581B2, “N-acyl-arylsulfonamide derivatives as aminoacyl-tRNA synthetase inhibitors” (Oxford Drug Design Limited, priority 2015, dated 2021).
# Read-outs that look alike come from different tables or passages of the source.
# Assays:
# [1] = target: T1, SauLRS (leucyl-tRNA synthetase from Staphylococcus aureus) (Staphylococcus aureus, UniProt Q2FXH2); experiment: aaRS aminoacylation assay (ATP consumption), SauLRS; format: biochemical
# T1 construct: made in house; host or cells: Escherichia coli M15
# T1 sequence (Q2FXH2 1-805): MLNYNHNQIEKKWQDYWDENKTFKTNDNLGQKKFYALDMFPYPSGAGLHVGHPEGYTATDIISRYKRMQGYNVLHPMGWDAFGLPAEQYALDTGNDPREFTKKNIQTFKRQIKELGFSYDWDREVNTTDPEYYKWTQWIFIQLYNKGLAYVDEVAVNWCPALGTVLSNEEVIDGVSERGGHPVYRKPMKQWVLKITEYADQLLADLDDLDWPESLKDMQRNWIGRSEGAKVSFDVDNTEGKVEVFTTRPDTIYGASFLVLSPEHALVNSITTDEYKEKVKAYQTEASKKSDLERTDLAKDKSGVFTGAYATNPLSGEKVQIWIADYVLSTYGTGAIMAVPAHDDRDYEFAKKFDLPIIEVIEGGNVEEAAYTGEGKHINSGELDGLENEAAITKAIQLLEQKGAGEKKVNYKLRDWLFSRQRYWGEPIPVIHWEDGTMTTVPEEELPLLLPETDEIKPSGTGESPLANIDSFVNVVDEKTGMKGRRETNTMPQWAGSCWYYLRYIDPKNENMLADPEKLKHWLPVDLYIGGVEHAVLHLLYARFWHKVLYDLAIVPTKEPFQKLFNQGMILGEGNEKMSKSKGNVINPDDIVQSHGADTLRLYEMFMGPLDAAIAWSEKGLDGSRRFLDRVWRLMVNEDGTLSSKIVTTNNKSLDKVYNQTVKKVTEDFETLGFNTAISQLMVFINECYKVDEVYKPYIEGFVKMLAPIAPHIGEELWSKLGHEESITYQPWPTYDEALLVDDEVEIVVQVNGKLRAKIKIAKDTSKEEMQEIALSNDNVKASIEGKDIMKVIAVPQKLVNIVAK
# Experimental: (§1) The compounds have been tested for antibacterial activity in vitro as aminoacyl-tRNA synthetases (aaRS) inhibitors following the following process.
# (§2) Leucyl-, valyl- and isoleucyl-tRNA synthetases (LRS, VRS and IRS, respectively) from Escherichia coli (Eco) and Staphylococcus aureus (Sau).
# (§3) Escherichia coli M15 cells transformed with plasmid pQE-60, or pQE-70, containing the open-reading frame sequence of one targeted aaRS were induced with 1 mM IPTG (Isopropyl β-D-1-thiogalactopyranoside) for 3 h at 37° C. Bacterial cells were harvested and lysed with 20 mM NaH2PO4 (pH 8.0), 200 mM NaCl, 10 mM imidazole and protease inhibitor cocktail (Roche). Pathogenic aaRS was purified by nickel affinity standard chromatography. Protein concentration was determined by spectrophotometry.
# (§4) tRNA^Leu, tRNA^Val and tRNA^Ile from E. coli and S. aureus were transcribed in vitro for 4 h at 37° C. using T7 RNA polymerase. Transcription reaction contained 40 mM Tris-HCl (pH 8.0), 22 mM MgCl2, 1 mM spermidine, 5 mM DTT, 0.01% Triton X-100, 4 mM GTP, 4 mM ATP, 4 mM UTP, 4 mM CTP, 16 mM GMP, […] T7 RNA polymerase and 150 μg BstNI digested plasmid. Once finished, the reaction was applied on a 6% polyacrylamide-8 M urea denaturing gel to purify the transcribed tRNA and discard any impurities. Purified tRNA was quantified with Nanodrop 2000 (Thermo Scientific).
# (§5) The aminoacylation reaction catalyzed by aminoacyl-tRNA synthetases (aaRS) takes place in two steps. In the first step, aaRS activates its cognate amino acid with ATP; and in the second step the activated amino acid is loaded to its corresponding tRNA. This reaction can be summarized as follows: ARS+aa+ATP=ARS-aa-AMP+PPi ARS-aa-AMP+tRNA=aa-tRNA+AMP+ARS [2] (ARS, Aminoacyl-tRNA synthetase; aa, amino acid; ARS-aa-AMP, enzyme-bound to aminoacyl-adenylate; aa-tRNA, aminoacyl-tRNA).
# (§6) The activity of the pathogenic aaRSs was monitored by measuring the ATP consumption rate, since this consumption is directly proportional to the activity of the aaRS. If the tested compound, at a single point concentration of 50 μM, is inhibiting the aminoacylation reaction, there is a decrease in the ATP consumption, compared to the control reaction without compound, allowing the calculation of an inhibition ratio.
# (§7) When the inhibition ratio for a given compound was above 80%, IC50 determination was performed with the same enzymatic assay (using the commercial kit Kinase RR from BioThema AB, Sweden) in the presence of serial dilutions of inhibitor. Known inhibitors of LRS, VRS or IRS were used as a positive control of the assay. The IC50 was calculated based on nonlinear regression analysis.
# [2] = target: T2, SauIRS (isoleucyl-tRNA synthetase from Staphylococcus aureus) (Staphylococcus aureus, UniProt P41972); experiment: aaRS aminoacylation assay (ATP consumption), SauIRS; format: biochemical; conditions: i.a. = inactive at a concentration below 50 uM
# T2 construct: made in house; host or cells: Escherichia coli M15
# T2 sequence (P41972 1-917): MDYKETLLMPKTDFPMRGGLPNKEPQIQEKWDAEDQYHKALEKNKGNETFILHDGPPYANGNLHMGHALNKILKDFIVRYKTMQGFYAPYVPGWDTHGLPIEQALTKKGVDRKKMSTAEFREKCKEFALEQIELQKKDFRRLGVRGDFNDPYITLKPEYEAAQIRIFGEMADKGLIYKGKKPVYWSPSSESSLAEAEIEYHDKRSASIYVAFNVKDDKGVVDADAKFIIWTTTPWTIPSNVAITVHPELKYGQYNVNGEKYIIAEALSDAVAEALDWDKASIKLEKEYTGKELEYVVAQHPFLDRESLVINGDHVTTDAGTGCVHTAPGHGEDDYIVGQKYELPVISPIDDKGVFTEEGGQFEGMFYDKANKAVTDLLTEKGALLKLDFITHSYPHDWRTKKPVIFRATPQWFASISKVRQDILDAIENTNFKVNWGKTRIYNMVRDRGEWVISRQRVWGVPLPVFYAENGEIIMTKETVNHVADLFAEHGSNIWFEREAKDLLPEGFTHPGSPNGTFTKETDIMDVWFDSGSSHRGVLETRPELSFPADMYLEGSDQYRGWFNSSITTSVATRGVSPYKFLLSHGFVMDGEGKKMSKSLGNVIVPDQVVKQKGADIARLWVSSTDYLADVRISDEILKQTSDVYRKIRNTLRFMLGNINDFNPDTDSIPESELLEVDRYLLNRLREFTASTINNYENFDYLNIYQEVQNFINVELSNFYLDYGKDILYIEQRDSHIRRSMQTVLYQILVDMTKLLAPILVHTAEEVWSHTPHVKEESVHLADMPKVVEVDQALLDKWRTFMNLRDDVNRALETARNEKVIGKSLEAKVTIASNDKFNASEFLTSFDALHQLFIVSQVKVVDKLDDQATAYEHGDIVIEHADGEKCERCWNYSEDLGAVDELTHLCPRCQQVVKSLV
# Experimental: as §1, §2, §3, §4, §5, §6, §7
# [3] = i.a. = inactive at a concentration below 50 uM, read-out: IC50 SauLRS
# [4] = i.a. = inactive at a concentration below 50 uM
Compound,melting point,"IC50 [1, 3] [µM]",IC50 SauIRS [2],"IC50 SauLRS [1, 4]",IC50 [1] [µM]
CC(C)C[C@H](N)C(=O)NS(=O)(=O)c1cccc(-c2nc(N)nc3nc[nH]c23)c1 [Compound 5.38],117 °C (dec.),1.11,i.a.,–,–
CC(C)C[C@H](N)C(=O)NS(=O)(=O)c1ccc(-c2ccccc2)cc1 [Compound 5.11],212 °C (dec.),11.3,i.a,–,–
N[C@@H](CC1CC1)C(=O)NS(=O)(=O)c1cccc(-c2ccccc2)c1 (racemic) [Compound 5.10],214.4 °C,–,i.a,i.a,–
CC(C)C[C@H](N)C(=O)NS(=O)(=O)c1cccc(-c2ccnc(O)n2)c1 [Compound 5.50],191 to 221 °C (dec.),13.9,i.a.,–,–
CC(C)C[C@H](N)C(=O)NS(=O)(=O)c1c(C(C)C)cc(C(C)C)cc1C(C)C [Compound 5.12],217 °C,–,i.a,i.a,–
CC(C)C[C@H](N)C(=O)NS(=O)(=O)c1ccccc1-c1ccccc1 [Compound 5.3],143 °C (dec.),14.8,i.a,–,–
CC(C)C[C@H](N)C(=O)NS(=O)(=O)c1cccc2ccncc12 [Compound 5.21],55 to 57 °C,3.42,i.a,–,–
Cc1cc(-c2cccc(S(=O)(=O)NC(=O)[C@@H](N)CC3CC3)c2)nc(N)n1 [Compound 5.30],> 192 °C (dec.),–,i.a,i.a,–
CC(C)C[C@H](N)C(=O)NS(=O)(=O)c1cccc(-c2cc(-c3ccccc3)nc(N)n2)c1 [Compound 5.41],186 to 188 °C (dec.),3,i.a.,–,–
CC(C)C[C@H](N)C(=O)NS(=O)(=O)c1cccc(-c2ccnc(Cl)n2)c1 [Compound 5.49],231 to 238 °C (dec.),6.23,i.a.,–,–
CC(C)C[C@H](N)C(=O)NS(=O)(=O)c1cccc(-c2cccc(N)n2)c1 [Compound 5.44],148 °C (dec.),1.64,i.a.,–,–
CC(C)C[C@H](N)C(=O)NS(=O)(=O)c1cccc(-c2ccncc2)c1 [Compound 5.42],151 °C (dec.),–,i.a.,–,0.81
CC[C@H](C)[C@H](N)C(=O)NS(=O)(=O)c1ccc2ccccc2c1 [Compound 5.15],229.7 °C,–,i.a,i.a,–
CC(C)C[C@H](N)C(=O)NS(=O)(=O)c1ccc(Oc2ccccc2)cc1 [Compound 5.2],224 to 225 °C,16.3,i.a,–,–
Cc1cc(-c2cccc(S(=O)(=O)NC(=O)[C@@H](N)CC(C)C)c2)ncn1 [Compound 5.39],246 °C,2,i.a.,–,–
"Cc1cc(-c2cccc(S(=O)(=O)NC(=O)[C@@H](N)CC(C)C)c2)nc(N)n1 [Compound 5.35, (S)-2-amino-N-((3-(2-amino-6-methylpyrimidin-4-yl)phenyl)sulfonyl)-4-methylpentanamide]",241 to 242 °C (dec.),4.34,i.a.,–,–
